Assay results as given in US20130231307A1, “NOVEL ANTIVIRAL ACYCLIC NUCLEOSIDE PHOSPHONATES” (CENTRE NATIONAL DE LA RECHERCHE SCIENTIFIQUE, priority 2010, published 2013).
Read-outs that look alike come from different tables or passages of the source.

Key:
[1] = tested on: HSV-1 TK^− (KOS acyclovir resistant, ACV)
[2] = tested on: thymidine kinase-deficient VZV strain 07/1
[3] = tested on: herpes simplex virus type 1 (HSV-1) (KOS)
UMP-CMP kinase (hUCK) = target: T1, UMP-CMP kinase (hUCK) (Homo sapiens, UniProt P30085); conditions: cited from earlier work
T1 sequence (P30085 1-196): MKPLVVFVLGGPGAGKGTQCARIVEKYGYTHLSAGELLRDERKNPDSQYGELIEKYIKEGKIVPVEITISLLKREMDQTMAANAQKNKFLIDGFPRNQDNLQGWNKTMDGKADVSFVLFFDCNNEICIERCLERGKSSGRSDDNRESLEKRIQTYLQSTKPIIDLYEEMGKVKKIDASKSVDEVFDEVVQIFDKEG

DNA viruses = type: cell-based
[4] = in vivo; cited from earlier work

Q: For `CC(C)(C)C(=O)OCOP(=O)(C/C=C/Cn1cc(Br)c(=O)[nH]c1=O)OCOC(=O)C(C)(C)C` [Ie1, (E)-N^1-(4′-bis(POM)-phosphinyl-2′-butenyl)-5-bromo-uracil], which “antiviral activity against mutant TK-deficient HSV-1 TK^−” value [1] is on record?
A: pronounced antiviral activity

Q: What about the “antiviral activity against mutant TK-deficient VZV TK” value [2] of the same compound?
A: pronounced antiviral activity

Q: And the “inhibitory activity against HSV-2” value (HSV-2 (G))?
A: most inhibitory

Q: And the “inhibitory activity against HSV-1” value [3]?
A: most inhibitory

Q: And the “inhibitory activity against VZV” value (VZV strain OKA)?
A: most inhibitory

Q: Which “substrate for hUCK” value (UMP-CMP kinase (hUCK)) does the source give for `Nc1ccn(C[C@@H](CO)OCP(=O)(O)O)c(=O)n1` [cidofovir] here?
A: not a substrate for hUCK

Q: With `CC(C)(C)C(=O)OCOP(=O)(C/C=C\Cn1cc(Br)c(=O)[nH]c1=O)OCOC(=O)C(C)(C)C` [Ie2, (Z)—N^1-(4′-bis(POM)-phosphinyl-2′-butenyl)-5-bromo-uracil] as the compound, how does the “antiviral activity, [Z] versus corresponding [E] isomers” value (DNA viruses) read?
A: clearly less, or not antivirally active

Q: For `CC(C)(C)C(=O)OCOP(=O)(C/C=C\Cn1ccc(=O)[nH]c1=O)OCOC(=O)C(C)(C)C` [Ia2], which “antiviral activity, [Z] versus corresponding [E] isomers” value (DNA viruses; HEL cell cultures) is on record?
A: clearly less, or not antivirally active

Q: For `Nc1ncnc2c1ncn2CCOCP(=O)(O)OP(=O)(O)OP(=O)(O)O` [PMEA-PP], which “half-life in the body” value [4] is on record?
A: > 15 H
